Reference: PMC5347425, “Small Molecule-Induced Domain Swapping as a Mechanism for Controlling Protein Function and Assembly” (Scientific Reports, 2017)

Target: T1, ribose binding protein (RBP) (Caldanaerobacter subterraneus, UniProt Q8RD41)
T1 construct: gene RbsB; RF125: RBP with human FKBP12 (V24A and C22A) inserted at position 125, without the NFM and CFM mutations
Test: isothermal titration calorimetry

T1 sequence (Q8RD41 24-313): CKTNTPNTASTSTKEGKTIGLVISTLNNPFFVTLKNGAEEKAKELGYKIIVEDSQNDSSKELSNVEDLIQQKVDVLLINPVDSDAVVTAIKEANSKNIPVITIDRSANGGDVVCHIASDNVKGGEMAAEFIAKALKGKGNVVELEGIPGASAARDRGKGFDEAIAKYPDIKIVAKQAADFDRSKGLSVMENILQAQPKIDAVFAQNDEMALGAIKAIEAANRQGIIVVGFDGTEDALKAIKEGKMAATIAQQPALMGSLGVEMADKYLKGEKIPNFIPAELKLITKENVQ
T1 sequence (P62942 with tags, fused parts or gaps C23A/V25A partner): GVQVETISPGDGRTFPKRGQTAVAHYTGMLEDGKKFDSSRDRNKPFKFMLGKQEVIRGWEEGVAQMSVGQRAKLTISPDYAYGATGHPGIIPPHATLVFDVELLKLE

Which Kd does the source give for `O=C[C@H](O)[C@H](O)[C@H](O)CO` [ribose] here?
Its Kd is 0.0128 µM.
